From publication PMC6368365, “Didehydro-Cortistatin A Inhibits HIV-1 by Specifically Binding to the Unstructured Basic Region of Tat” (mBio, 2019)

Assays:
[1] = test system: recombinant Tat transactivation of HIV-1 transcription in OM10.1 cells; assay: Transactivation assay with recombinant Tat in OM10.1 cell model of HIV-1 latency; type: cell-based; conditions: Tat 1 μg, dCA 250 nM
Source text: The production of functional recombinant HIV-1 Tat in Escherichia coli is not trivial as the proper folding of Tat is extremely important for activity, and when expressed by itself, Tat agglomerates mostly because of oxidation of the cysteine residues in the cysteine region. Tat can also adhere to different surfaces and anionic polymers via its charged and hydrophobic residues ([21], [22]). We produced and purified recombinant HIV Tat HXB3 (residues 1 to 89) with a 6×His tag in the C-terminus in E. coli. For this, we have partially optimized the arginine codon usage and changed the rare AGA into codon CGT at arginine positions 7, 53, 56, and 87 of Tat (Fig. 1A). […] After Tat purification using nickel affinity chromatography followed by size exclusion filtration, Tat protein size was analyzed by SDS-PAGE followed by Coomassie blue staining (Fig. 1B). The specificity of the bands was confirmed by Western blotting using anti-Tat serum and anti-His antibody (Fig. 1B). The purity of Tat was further verified by size exclusion chromatography and high-performance liquid chromatography (HPLC) (Fig. 1C and D). […]
FIG 1 Purity and activity of the monomeric His-tagged Tat HXB3 and analysis of its direct binding to dCA. […] Statistical significance was determined using one-way ANOVA with post hoc Tukey’s test. ns, not significant; ***, P < 0.0001; *, P < 0.01. […]

[2] = biological target: Tat-TAR interaction (Human immunodeficiency virus type 1 group M subtype B, UniProt P69697); assay: EMSA of full-length Tat with TAR; type: biochemical, HIV-1; set-up: pTatC6H-1 (NIH AIDS Reagent Program) plasmid encoding C-terminal 6xHistidine Tat1-86 (HXB3, subtype B); made in house; host or cells: E. coli BL21 (plasmid pTatC6H-1, NIH AIDS Reagent Program); conditions: radiolabeled TAR
Tat-TAR interaction, sequence (P69697 whole entry, the tested form may be a part): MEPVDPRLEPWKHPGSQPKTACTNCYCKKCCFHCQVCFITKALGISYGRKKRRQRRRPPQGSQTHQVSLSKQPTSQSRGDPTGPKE
Source text: Tat amplifies viral mRNA expression by binding through its basic domain to TAR, the 5′-terminal region stem-bulge-loop structure of HIV mRNAs, and recruits several cofactors to the viral promoter to promote transcriptional elongation. We investigated whether dCA could compete with TAR for Tat binding. For this purpose, we performed EMSA with radiolabeled TAR and recombinant Tat in the presence or absence of dCA (Fig. 6A).
EMSA with full-length Tat, a protocol similar to that of Das et al. was performed ([60]). Details on the EMSA with Tat’s basic peptide are provided in Text S1.
EMSA With full-length Tat: similar protocol was performed as in Das et al. (60). With Tat’s basic peptide: the 59-nucleotides TAR RNA was prepared by in vitro T7 RNA polymerase transcription according to Maxiscript kit manufacturer’s instructions (Ambion). The radiolabeled RNA was purified by urea gel followed by phenol-chloroform extraction. Binding reaction mixture (25 µL of 10 mM Tris HCL pH 7.5, NaCl 70 mM, EDTA 0.2 mM, NP40 0.01 %, Glycerol 5 % and tRNA 100 ng/µL) contained traces of radiolabeled TAR RNA and basic peptide (Pep B, residues 45-59) (or peptide C “Pep C”, residues 69-83, as negative control) in combination or not with compounds or cold TAR. The mixture was incubated for 10 min at room temperature (RT). […]

SMILES | inhibition of recombinant Tat transactivation (HIV mRNA) [1] | inhibition of Tat-TAR interaction (EMSA) [2]
C[C@@](Cc1ccc(O)c(O)c1)(NN)C(=O)O.O [SCM, S-(−)-carbidopamonohydrate, reference compound] | no activity | 
CN(C)C1CC23CCC4(O2)C(=CCC2(C)C(c5ccc6ccncc6c5)=CCC24)C=C3C(O)C1O (stereo not shown) [dCA, didehydro-cortistatin A] | inhibited transcriptional activity of Tat | inhibited the interaction of Tat with TAR in a dose-responsive manner
Cc1nnc(C(=O)NC(C)(C)c2nc(C(=O)NCc3ccc(F)cc3)c(O)c(=O)n2C)o1 [raltegravir, reference compound] |  | no inhibitory activity
